The values below come from paper PMC3033228 (Clinical colorectal cancer, 2010).

Where two headings read alike, the source gives them in different places.

Series [1] can be described thus: 5-Fluorouracil plasma pharmacokinetics. The class given is in vivo, human. Conditions: for 5-Fluorouracil Cl: DL 3 (erlotinib 150 mg), individual values (n = 2).
Series [2] has as its system patients with advanced colorectal cancer. In words: Phase I toxicity assessment. To be noted: with FOLFOX4 with or without bevacizumab, oral, advanced CRC.
A further series deals with CRC. Conditions: cited from earlier work.
Another series can be described thus: clinical. Conditions: human, in vivo; for Cmax: Erlotinib Cmax.
The next series concerns patients. Conditions: cited from earlier work.
For series [3] the following is noted: human, in vivo.
For series [4] the following is noted: population pharmacokinetic analysis; cited from earlier work.

Turning to `O=c1[nH]cc(F)c(=O)[nH]1` [5-Fluorouracil], the “5-Fluorouracil Cl” value in series [1] (column Combination) was found to be 313.2 L/h; in series [1] (column Single Agent), 217.4 L/h. Further, the “5-Fluorouracil systemic clearance, effect of co-administration of erlotinib” value in series [1] (P = .97) is given as “not markedly affected”.
Take `C#Cc1cccc(Nc2ncnc3cc(OCCOC)c(OCCOC)cc23)c1` [erlotinib]: the “Maximum tolerated dose (MTD) of erlotinib” value in series [2] came to 100 mg daily. Further, the “Response rates (RRs) of monotherapy trials” value with CRC was “negligible”. In the series “clinical” (50 mg, Erlotinib Tmax), the Tmax – broadly, the time at which the peak concentration occurs – came out at 1.08 h. The Cmax (commonly the maximum level reached in the sampled fluid or tissue) in “clinical” (100 mg) turned out to be 985 ± 576 ng/mL; in “clinical” (150 mg), 1960 ± 1160 ng/mL. The “Dose level at which grade 3 diarrhea occurred” value in the series on patients is 200 mg. The Patients experiencing diarrhea is on record as 25% in the series on patients (erlotinib 100 mg/day) and 86% with patients (erlotinib 150 mg/day).
As to `COc1cc2ncnc(Nc3ccc(F)c(Cl)c3)c2cc1OCCCN1CCOCC1` [gefitinib], the “Response rates (RRs) of monotherapy trials” value in the series on CRC was “negligible”.
Turning to `C#Cc1cccc(Nc2ncnc3cc(OCCOC)c(OCCO)cc23)c1` [OSI-420], the “OSI-420 Cmax” value is recorded as 60.8 ± 16.1 (3) ng/mL in series [3] (50 mg), 67.8 ± 49.1 (8) ng/mL in series [3] (100 mg) and 193.2 ± 92.6 (3) ng/mL in series [3] (150 mg). In addition, the “OSI-420 Tmax” value was 2.00 (1.08–2.00, 3) hour in series [3] (50 mg); 3.00 (1.03–25.03, 8) hour in series [3] (100 mg); 9.95 (2.07–24.08, 3) hour in series [3] (150 mg). The “OSI-420 exposure as share of erlotinib exposure” value in series [4] is recorded as “approximately 10%”.
